Data reported in ChEMBL document CHEMBL1201862, “PubChem BioAssay data set” (2004).
Active and inactive are the calls of the source. Cut-off read from the data, not from the text of the source, for most assays here: actives have a measured EC50 and inactives only a lower limit.

Key:
[1] = target: T1, Sphingosine 1-phosphate receptor 4 (Homo sapiens, UniProt O95977); experiment: Late-stage fluorescence dose response cell-based assay to identify agonists of the Sphingosine 1-Phosphate Receptor 4 (S1P4): purchased compounds EC50. [Related pubchem assays (depositor defined):AID1509, AID1523, AID1563, AID1686, AID1701, AID1801]; assay type: functional
T1 sequence (O95977 whole entry): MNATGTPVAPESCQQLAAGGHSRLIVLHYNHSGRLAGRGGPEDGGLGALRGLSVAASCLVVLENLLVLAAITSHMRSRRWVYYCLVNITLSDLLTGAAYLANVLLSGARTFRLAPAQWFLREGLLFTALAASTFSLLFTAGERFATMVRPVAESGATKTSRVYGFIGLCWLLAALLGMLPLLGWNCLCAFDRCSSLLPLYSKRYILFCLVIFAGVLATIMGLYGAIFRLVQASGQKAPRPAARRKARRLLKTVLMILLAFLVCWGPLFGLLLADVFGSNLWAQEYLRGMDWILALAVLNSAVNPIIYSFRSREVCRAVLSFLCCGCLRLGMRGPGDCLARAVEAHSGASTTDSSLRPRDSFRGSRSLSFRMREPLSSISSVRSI

[2] = NIH-3T3 fibroblast cytotoxicity, dose response, cytotoxicity control, cell-based, fluorescence, Alamar Blue, secondary assay (AID 2327); assay type: functional;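 note: NIH-3T3 mouse fibroblasts cultured with fluconazole at 8 µg/mL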
[3] = Luminescence Cell-Based Dose Response HTS to Identify Inhibitors of Luciferase Translation or Activity in H4-C Neuroglioblastoma Cells. [Related pubchem assays: 1813 (Primary HTS), 1827 (Project Summary)]; assay type: functional
[4] = Luminescence Cell-Based Dose Response HTS to Identify Activators of Luciferase Translation or Activity in H4-C Neuroglioblastoma Cells. [Related pubchem assays: 1829 (Project Summary), 1814 (Primary HTS)]; assay type: functional
[5] = luciferase reporter signal suppression in cells – H4 neuroglioma cells, luminescence, dose response (AID 1990); assay type: functional, cell-based
[6] = luciferase reporter signal reduction – luminescence, H4-C neuroglioblastoma cells, dose response (AID 2458); assay type: functional, cell-based;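 note: H4 neuroglioblastoma cells stably carrying a luciferase reporter gene fusion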
[7] = Luminescence Cell-Based Dose Retest to Confirm Activators of 5'UTR Stem-Loop Driven Alpha-Synuclein mRNA Translation in H4 Neuroglioblastoma Cells. [Related pubchem assays (depositor defined):AID1813, AID1829]; assay type: functional
[8] = Luminescence Cell-Based Dose Response HTS to Identify Activators of 5'UTR Stem-Loop Driven Prion Protein mRNA Translation in H4-C Neuroglioblastoma Cells. [Related pubchem assays: 1829 (Project Summary), 1814 (Primary HTS)]; assay type: functional
[9] = test system: Streptococcus sp. 'group A'; experiment: Streptococcus pyogenes SK(-)GAS viability under kanamycin – luminescence, BacTiterGlo, confirmation, counter-screen for streptokinase expression inhibitor project, dose response (AID 1900); assay type: functional, organism-based
[10] = Luminescence Cell-Based Dose HTS Response to Identify Inhibitors of 5'UTR Stem-Loop Driven Prion Protein mRNA Translation in H4-C Neuroglioblastoma Cells. [Related pubchem assays (depositor defined):AID1814, AID1827]; assay type: functional
[11] = cells; assay type: functional, cell-based
[12] = Luminescence Cell-Based Dose Response HTS to Identify Inhibitors of 5'UTR Stem-Loop Driven Prion Protein mRNA Translation in H4 Neuroglioblastoma Cells. [Related pubchem assays: 1827 (Project Summary), 1813 (Primary HTS)]; assay type: functional
[13] = target: Beta-galactosidase (Escherichia coli, UniProt Q8VNN2); experiment: PubChem AID 485352; assay type: functional
[14] = alpha-synuclein stem-loop luciferase translation blockers – H4 neuroglioma cells, luminescence, confirmation (AID 1988); assay type: functional, cell-based
[15] = fluconazole-exposed Candida albicans growth modulators – fluorescence, retest, confirmation (AID 2467); assay type: functional, cell-based
[16] = Luminescence Cell-Based Dose Confirmation HTS to Identify Inhibitors of 5'UTR Stem-Loop Driven Alpha-Synuclein mRNA Translation in H4 Neuroglioblastoma Cells. [Related pubchem assays: 1827 (Project Summary), 1813 (Primary HTS)]; assay type: functional
[17] = Trypanosoma cruzi growth suppression in host cells – NIH3T3 host cells, beta-gal luminescence, confirmation (AID 2044); assay type: functional, cell-based;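 note: intracellular parasites grown in NIH/3T3 mouse fibroblasts as host cells; luminescent beta-galactosidase reporter signal from transgenic T. cruzi replicating inside host cells; inhibitors lower the luminescence signal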
[18] = target: T2, Type-1 angiotensin II receptor (Homo sapiens, UniProt P30556); experiment: antagonism of angiotensin II type 1 receptor – cell-based, uHTS hits, selectivity assay for APJ receptor antagonist project, dose response (AID 463214); assay type: functional;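 note: antagonist potency against angiotensin II stimulated AT1 response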
T2 sequence (P30556 whole entry): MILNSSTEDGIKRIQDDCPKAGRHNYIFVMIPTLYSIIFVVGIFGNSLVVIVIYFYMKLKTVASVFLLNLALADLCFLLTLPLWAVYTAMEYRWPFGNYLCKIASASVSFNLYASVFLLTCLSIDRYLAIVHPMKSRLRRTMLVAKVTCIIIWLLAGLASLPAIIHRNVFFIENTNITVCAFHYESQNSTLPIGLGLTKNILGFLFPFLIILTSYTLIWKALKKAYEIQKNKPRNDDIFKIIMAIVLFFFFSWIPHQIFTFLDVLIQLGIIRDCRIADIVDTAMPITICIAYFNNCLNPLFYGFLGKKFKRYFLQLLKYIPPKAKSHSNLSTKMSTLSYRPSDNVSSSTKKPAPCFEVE

[19] = target: T3, Serine/threonine-protein phosphatase (Candida dubliniensis (strain CD36 / CBS 7987 / NCPF 3949 / NRRLY-17841) (Yeast), UniProt B9W6M3); experiment: blockers of CaCl2-induced CDRE-lacZ signaling – S. cerevisiae, luminescence, secondary, dose response (AID 2388); assay type: functional, cell-based;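 note: yeast reporter cells carrying a calcineurin-responsive lacZ construct stimulated with calcium chloride; luminescent beta-galactosidase reporter signal in whole cells rather than isolated phosphatase activity; potency for inhibition where a drop in reporter signal means calcineurin blockade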
T3 sequence (B9W6M3 whole entry): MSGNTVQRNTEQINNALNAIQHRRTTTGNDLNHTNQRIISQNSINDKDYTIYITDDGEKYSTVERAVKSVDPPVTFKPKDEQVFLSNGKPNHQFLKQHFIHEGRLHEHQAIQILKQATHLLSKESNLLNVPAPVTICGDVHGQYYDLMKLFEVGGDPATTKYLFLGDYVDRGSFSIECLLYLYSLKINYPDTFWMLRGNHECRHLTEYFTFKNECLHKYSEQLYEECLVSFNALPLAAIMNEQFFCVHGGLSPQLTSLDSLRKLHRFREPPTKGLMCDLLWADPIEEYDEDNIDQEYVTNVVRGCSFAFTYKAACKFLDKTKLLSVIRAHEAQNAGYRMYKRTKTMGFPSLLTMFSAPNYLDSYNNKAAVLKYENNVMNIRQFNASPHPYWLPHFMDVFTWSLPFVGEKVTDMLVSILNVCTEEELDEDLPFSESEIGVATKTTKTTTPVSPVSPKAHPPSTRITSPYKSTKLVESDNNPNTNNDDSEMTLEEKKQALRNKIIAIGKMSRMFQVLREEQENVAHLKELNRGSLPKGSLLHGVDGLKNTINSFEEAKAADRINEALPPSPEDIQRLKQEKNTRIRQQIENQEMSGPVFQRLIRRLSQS

[20] = NIH3T3 cell viability loss – ATP luminescence, mouse fibroblasts, counter-screen, dose response (AID 2010); assay type: functional, cell-based;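 note: cells exposed to compound for about 90 hours before reading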
[21] = target: Induced myeloid leukemia cell differentiation protein Mcl-1 (Homo sapiens, UniProt Q07820); assay type: functional
[22] = test system: Streptococcus; experiment: GAS UMAA2166 growth inhibition – luminescence, BacTiterGlo, counter-screen for streptokinase expression inhibitor project, dose response (AID 1915); assay type: functional, organism-based;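 note: potency for reduction of bacterial viability or growth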
[23] = alpha-synuclein stem-loop translation blockers – luminescence, H4 neuroglioblastoma cells, dose confirmation, confirmation (AID 2454); assay type: functional, cell-based;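 note: H4 neuroglioblastoma cells carrying an alpha-synuclein 5'UTR luciferase reporter; potency for inhibition of the luciferase signal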
[24] = HEK-293T viability loss after treatment – luminescence, T-cell screen hits, cytotoxicity control for TCR NF-kB inhibitor project, dose response (AID 489026); assay type: functional, cell-based;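 note: cells exposed to compound about 14 hours before the viability readout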
[25] = target: Nonstructural protein 1 (Influenza A virus, UniProt Q194T2); assay type: functional, Influenza A virus (A/California/07/2009(H1N1))
[26] = target: ATP-dependent molecular chaperone HSP82 (Candida albicans (strain WO-1) (Yeast), UniProt C4YTQ8); experiment: steroid-induced GRE reporter decrease in yeast – S. cerevisiae, luminescence, Hsp90 inhibitor project, dose response (AID 2400); assay type: functional, cell-based;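 note: beta-galactosidase luminescence from glucocorticoid response element reporter as proxy for Hsp90 function; inhibitor potency where signal loss means Hsp90 inhibition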
ATP-dependent molecular chaperone HSP82, sequence (C4YTQ8 whole entry): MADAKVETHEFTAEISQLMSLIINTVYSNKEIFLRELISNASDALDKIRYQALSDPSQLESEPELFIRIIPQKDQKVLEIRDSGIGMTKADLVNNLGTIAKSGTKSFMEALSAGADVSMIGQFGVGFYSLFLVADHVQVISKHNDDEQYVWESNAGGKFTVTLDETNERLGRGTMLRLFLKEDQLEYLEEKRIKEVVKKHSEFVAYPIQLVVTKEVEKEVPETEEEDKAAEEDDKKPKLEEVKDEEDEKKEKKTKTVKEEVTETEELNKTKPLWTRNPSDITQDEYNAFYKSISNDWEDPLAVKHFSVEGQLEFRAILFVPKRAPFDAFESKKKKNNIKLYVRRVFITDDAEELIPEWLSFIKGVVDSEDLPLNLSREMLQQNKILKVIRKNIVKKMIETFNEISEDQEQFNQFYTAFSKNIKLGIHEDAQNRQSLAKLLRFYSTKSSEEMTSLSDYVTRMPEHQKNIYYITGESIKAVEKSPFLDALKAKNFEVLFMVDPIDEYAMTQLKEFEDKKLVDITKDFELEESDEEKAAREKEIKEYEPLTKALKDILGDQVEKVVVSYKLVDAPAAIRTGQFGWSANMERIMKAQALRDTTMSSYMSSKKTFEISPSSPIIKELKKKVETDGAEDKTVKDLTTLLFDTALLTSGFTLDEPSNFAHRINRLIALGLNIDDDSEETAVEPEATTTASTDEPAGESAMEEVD

Nonstructural protein 1, sequence (Q194T2 whole entry): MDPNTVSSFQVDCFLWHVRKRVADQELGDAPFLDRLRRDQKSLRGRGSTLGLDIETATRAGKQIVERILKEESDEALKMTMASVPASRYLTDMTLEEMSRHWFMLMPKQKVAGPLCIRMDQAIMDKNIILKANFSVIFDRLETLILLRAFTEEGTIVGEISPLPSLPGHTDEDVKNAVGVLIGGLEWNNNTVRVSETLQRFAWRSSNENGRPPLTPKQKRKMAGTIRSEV
Beta-galactosidase, sequence (Q8VNN2 whole entry): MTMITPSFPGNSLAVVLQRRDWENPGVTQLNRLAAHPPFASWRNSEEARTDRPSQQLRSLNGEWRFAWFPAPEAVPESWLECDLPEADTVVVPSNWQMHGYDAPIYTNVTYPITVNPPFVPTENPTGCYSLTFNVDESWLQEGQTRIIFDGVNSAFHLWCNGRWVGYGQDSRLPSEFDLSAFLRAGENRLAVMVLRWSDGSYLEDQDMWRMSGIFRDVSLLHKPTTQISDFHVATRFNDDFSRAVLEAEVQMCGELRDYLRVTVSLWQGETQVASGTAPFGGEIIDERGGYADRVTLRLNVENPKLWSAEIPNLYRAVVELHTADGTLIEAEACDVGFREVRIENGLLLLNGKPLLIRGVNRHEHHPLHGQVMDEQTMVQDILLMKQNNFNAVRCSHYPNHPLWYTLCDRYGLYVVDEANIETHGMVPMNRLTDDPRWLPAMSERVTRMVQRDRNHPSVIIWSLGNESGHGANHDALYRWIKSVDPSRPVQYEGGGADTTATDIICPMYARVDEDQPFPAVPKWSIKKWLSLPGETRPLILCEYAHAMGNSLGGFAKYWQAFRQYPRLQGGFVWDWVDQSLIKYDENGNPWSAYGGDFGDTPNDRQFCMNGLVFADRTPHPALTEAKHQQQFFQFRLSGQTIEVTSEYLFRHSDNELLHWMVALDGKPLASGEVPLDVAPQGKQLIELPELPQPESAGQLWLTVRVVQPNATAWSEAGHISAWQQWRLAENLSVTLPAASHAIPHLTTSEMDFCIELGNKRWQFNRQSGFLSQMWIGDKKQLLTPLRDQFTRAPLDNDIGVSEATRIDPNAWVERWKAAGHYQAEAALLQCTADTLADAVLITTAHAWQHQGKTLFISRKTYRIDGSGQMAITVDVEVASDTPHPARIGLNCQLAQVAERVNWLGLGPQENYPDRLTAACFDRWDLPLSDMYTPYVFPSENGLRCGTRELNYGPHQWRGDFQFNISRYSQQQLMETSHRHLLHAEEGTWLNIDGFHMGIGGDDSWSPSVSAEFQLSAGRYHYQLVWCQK
Induced myeloid leukemia cell differentiation protein Mcl-1, sequence (Q07820 whole entry): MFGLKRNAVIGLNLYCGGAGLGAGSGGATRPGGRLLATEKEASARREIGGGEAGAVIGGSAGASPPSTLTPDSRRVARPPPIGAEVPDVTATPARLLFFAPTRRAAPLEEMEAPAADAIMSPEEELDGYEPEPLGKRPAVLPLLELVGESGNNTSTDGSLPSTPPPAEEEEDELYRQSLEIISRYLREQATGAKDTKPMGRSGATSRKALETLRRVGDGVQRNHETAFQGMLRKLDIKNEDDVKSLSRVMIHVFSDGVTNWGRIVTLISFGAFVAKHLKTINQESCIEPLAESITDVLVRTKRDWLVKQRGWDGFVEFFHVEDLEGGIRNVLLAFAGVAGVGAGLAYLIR

Question: Which EC50 [1] does the source give for Cc1ccc(Cn2nc(C)c(C(=O)OC(C)C(=O)NCc3ccccc3)c2Cl)cc1 (stereo unspecified) here?
Answer: > 50 µM (inactive)

Question: Which EC50 [2] does the source give for O=[N+]([O-])c1ccc(O)c(/C=N/Nc2ccc(Cl)nn2)c1 here?
Answer: 14.6 µM (inconclusive)

Question: And the EC50 [3]?
Answer: 0.925 µM (active)

Question: And the EC50 [4]?
Answer: 1.05 µM (inconclusive)

Question: What about the EC50 [5] of the same molecule?
Answer: 9.52 µM (active)

Question: What about the EC50 [6] of the same molecule?
Answer: 0.717 µM (active)

Question: What about the EC50 [7] of the same molecule?
Answer: 0.673 µM (inconclusive)

Question: What about the EC50 [8] of the same molecule?
Answer: 0.375 µM (inconclusive)

Question: What about the EC50 [9] of the same molecule?
Answer: 0.305 µM (active)

Question: What about the EC50 [10] of the same molecule?
Answer: 0.904 µM (active)

Question: And the EC50 [11]?
Answer: 0.779 µM (active)

Question: What about the EC50 [12] of the same molecule?
Answer: > 120 µM (not active)

Question: And the EC50 [13]?
Answer: > 40 µM (inactive)

Question: What about the EC50 [14] of the same molecule?
Answer: < 0.1 µM (active)

Question: What about the EC50 [15] of the same molecule?
Answer: 0.179 µM (active)

Question: And the EC50 [16]?
Answer: 0.825 µM (active)

Question: And the EC50 [17]?
Answer: 0.633 µM (active)

Question: What about the IC50 [18] of the same molecule?
Answer: 3.63 µM (active)

Question: And the EC50 [19]?
Answer: > 180 µM (inactive)

Question: What about the EC50 [20] of the same molecule?
Answer: < 6 µM (inconclusive)

Question: And the IC50 [21]?
Answer: 14.1 µM (active)

Question: And the EC50 [22]?
Answer: 0.944 µM (active)

Question: And the EC50 [23]?
Answer: 0.65 µM (active)

Question: And the IC50 [24]?
Answer: > 80 µM (inactive)

Question: What about the IC50 [25] of the same molecule?
Answer: 1.32 µM (active)

Question: And the EC50 [26]?
Answer: > 150 µM (inactive)
